Data published in patent US9725442B2, “Heterocyclic derivative having PGD2 receptor antagonist activity” (Shionogi & Co., Ltd., priority 2011, dated 2017).
Like-named read-outs stand apart in the source and are kept apart here.

Tests used:
Human DP1 receptor = Human DP1 receptor (Homo sapiens (Human), UniProt Q13258); experiment: Human DP1 inhibitory activity in DP1-expressing cell (PGD2-induced cAMP); type: cell-based
Description: Compounds were categorized as AA (cAMP is less than 100 nM) and A (cAMP is more than 100 nM and less than 5000 nM) as shown in Table 99 and 100.

CRTH2 [1] = target: T1, CRTH2 (Homo sapiens (Human), UniProt Q9Y5Y4); experiment: CRTH2 inhibitory activity in human eosinophil (PGD2 induced eosinophil shape change); type: cell-based; conditions: human peripheral blood, 40 nM PGD2, forward scatter; read-out: IC50, inhibition of PGD2 induced eosinophil shape change
T1 sequence (Q9Y5Y4 whole entry): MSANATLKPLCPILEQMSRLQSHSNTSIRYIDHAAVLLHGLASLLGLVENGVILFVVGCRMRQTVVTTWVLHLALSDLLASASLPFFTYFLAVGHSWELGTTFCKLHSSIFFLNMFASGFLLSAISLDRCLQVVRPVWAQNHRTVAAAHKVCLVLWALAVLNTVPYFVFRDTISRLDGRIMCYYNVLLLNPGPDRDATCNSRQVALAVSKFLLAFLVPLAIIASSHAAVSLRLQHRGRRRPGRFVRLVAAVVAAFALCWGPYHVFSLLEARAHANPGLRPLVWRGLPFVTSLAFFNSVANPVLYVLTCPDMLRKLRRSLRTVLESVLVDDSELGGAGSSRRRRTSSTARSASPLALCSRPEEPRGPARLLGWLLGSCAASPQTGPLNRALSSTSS
Description: CRTH2 inhibitory activity in human eosinophil was determined as inhibitory activity of PGD2 induced eosinophil shape change.
Human peripheral blood was mixed with compounds of the present invention at 37° C. After 5 min, the blood was treated with 40 nM of PGD2 for 10 min and fixed. The blood was hemolyzed and centrifuged. Blood cells were resuspended in PBS and measured forward scatter (FS) using flow cytometer (FACSAria). Inhibition ratio was defined by comparing FS with and without compound, and IC50 for each compound was calculated from inhibitory curve.

DP receptor = DP receptor (Homo sapiens (Human), UniProt Q13258); experiment: DP inhibitory activity in human platelets (PGD2-induced cAMP increase in platelet rich plasma, HTRF); type: cell-based; conditions: IC50 of PGD2 (300 nM)-induced cAMP increase, read-out: PRP
DP receptor, sequence (Q13258 whole entry): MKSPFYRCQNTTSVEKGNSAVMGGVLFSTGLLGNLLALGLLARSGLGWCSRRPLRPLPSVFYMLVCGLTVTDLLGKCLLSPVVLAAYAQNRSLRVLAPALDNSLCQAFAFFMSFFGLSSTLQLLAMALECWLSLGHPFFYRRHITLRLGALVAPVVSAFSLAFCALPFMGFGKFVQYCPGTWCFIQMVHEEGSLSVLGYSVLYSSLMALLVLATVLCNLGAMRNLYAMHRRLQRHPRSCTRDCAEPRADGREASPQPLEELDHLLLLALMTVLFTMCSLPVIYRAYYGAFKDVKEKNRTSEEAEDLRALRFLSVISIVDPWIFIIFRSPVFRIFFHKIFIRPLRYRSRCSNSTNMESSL
Description: Thirty milliliter of blood was drown from healthy human into a syringe preloaded with 1/9 volume of 3.8% citrate sodium. The blood was centrifuged with 180 g for 10 min at room temperature and the upper plasma layer was collected as platelet rich plasma (PRP). The PRP was transferred to plate and treated with 3-isobutyl-1-methylxanthin (IBMX; […]) for 5 min. Then the compounds of the present invention were added to the plate and after 10 min, 300 nM of PGD2 was added. The reaction was stopped with 1 mmol/l hydrogenchlolide after 2 min of PGD2 addition, and platelet was lysed by adding 12% Triton X-100. The concentration of cAMP in the supernatant of the platelet lysate was quantified using homogenous time resolved fluorescence (HTRF). Inhibition ratio was defined by cAMP increase with and without compound, and […] for each compound was calculated from inhibitory curve.

CRTH2 [2] = target: T1, CRTH2; experiment: CRTH2 receptor binding inhibitory activity ([3H]-PGD2 displacement, membranes of CRTH2-expressing K562 cell); conditions: [3H]-PGD2 displacement, membrane of CRTH2-expressing K562 cell, read-out: Ki
Method in brief: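 CRTH2-expressing K562 membranes (20 μg/well) in 50 mM Tris/HCl pH 7.4 with 10 mM MgCl2 were incubated with [3H]-PGD2 for 60 min at room temperature, then filtered.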

CRTH2 [3] = target: T1, CRTH2; experiment: CRTH2 inhibitory activity in CRTH2-expressing cells (PGD2-induced intracellular calcium increase, K562); type: cell-based; conditions: 200 nM PGD2, read-out: IC50, inhibition of intracellular calcium concentration increase induced by PGD2
Description: CRTH2 inhibitory activities of compounds were determined as inhibition activity of intra-cellular calcium concentration increase induced by PGD2 in CRTH2-expressing cells.
CRTH2-expressing K562 cells were suspended at concentration of 2×10^6 cells/ml in buffer (10 mM HEPES, pH 7.4, 0.1% Bovine serum albumin). Cells were incubated with […] (4 μM) for 30 min at room temperature. Cells were washed, resuspended and mixed with various concentration of compounds of the present invention. After 2 min, cells were treated with 200 nM of PGD2. Then intracellular calcium concentration was measured using intracellular ion analyzer (FDSS3000). Inhibition ratio was defined by comparing intracellular calcium concentration increase with and without compound, and IC50 for each compound was calculated from inhibitory curve.

[4] = target: CYP3A4 enzyme expressed in Escherichia coli (Homo sapiens (Human), UniProt P08684); experiment: CYP3A4 fluorescent MBI test; type: in vitro ADME; conditions: pre-reaction time 0 or 30 minutes, substrate 7-BFC; read-out: CYP3A4 MBI, difference between IC50 values with and without preincubation
CYP3A4 enzyme expressed in Escherichia coli, sequence (P08684 whole entry): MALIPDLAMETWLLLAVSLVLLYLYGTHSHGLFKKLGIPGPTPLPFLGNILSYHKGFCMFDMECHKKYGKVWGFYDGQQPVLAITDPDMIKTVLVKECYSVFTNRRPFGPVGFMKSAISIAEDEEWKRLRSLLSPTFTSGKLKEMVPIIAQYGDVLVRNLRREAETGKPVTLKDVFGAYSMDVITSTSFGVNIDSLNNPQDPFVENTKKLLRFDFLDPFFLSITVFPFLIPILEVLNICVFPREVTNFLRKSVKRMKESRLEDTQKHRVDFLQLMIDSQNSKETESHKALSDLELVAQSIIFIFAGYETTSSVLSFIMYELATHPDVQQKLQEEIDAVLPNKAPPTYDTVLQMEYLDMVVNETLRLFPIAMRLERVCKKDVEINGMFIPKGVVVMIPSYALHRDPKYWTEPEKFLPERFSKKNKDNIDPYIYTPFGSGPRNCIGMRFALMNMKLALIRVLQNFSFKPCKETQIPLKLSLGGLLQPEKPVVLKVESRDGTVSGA
Description: The CYP3A4 fluorescent MBI test is a test of investigating enhancement of CYP3A4 inhibition of a compound by a metabolism reaction, and the test was performed using, as CYP3A4 enzyme expressed in Escherichia coli and employing, as an index, a reaction in which 7-benzyloxytrifluoromethylcoumarin (7-BFC) is debenzylated by the CYP3A4 enzyme to produce a metabolite, 7-hydroxytrifluoromethylcoumarin (HFC) emitting fluorescent light.
The reaction conditions were as follows: substrate, 5.6 μmol/L 7-BFC; pre-reaction time, 0 or 30 minutes; reaction time, 15 minutes; reaction temperature, 25° C. (room temperature); CYP3A4 content (expressed in Escherichia coli), at pre-reaction […], at reaction […] (at 10-fold dilution); concentration of a compound of the present, 0.625, 1.25, 2.5, 5, 10, 20 μmol/L (six points).
An enzyme in a K-Pi buffer (pH 7.4) and a compound solution of the present invention as a pre-reaction mixture were added to a 96-well plate at the composition of the pre-reaction, a part of it was transferred to another 96-well plate so that it was 1/10 diluted by a substrate in a K-Pi buffer, NADPH as a co-factor was added to initiate a reaction as an index (without preincubation) and, after a predetermined time of a reaction, acetonitrile/0.5 mol/L Tris(trishydroxyaminomethane)=4/1 (V/V) was added to stop the reaction. In addition, NADPH was added to a remaining preincubation solution to initiate a preincubation (with preincubation) and, after a predetermined time of a preincubation, a part was transferred to another plate so that it was 1/10 diluted with a substrate and a K-Pi buffer to initiate a reaction as an index. After a predetermined time of a reaction, acetonitrile/0.5 mol/L Tris(trishydroxyaminomethane)=4/1 (V/V) was added to stop the reaction. For the plate on which each index reaction had been performed, a fluorescent value of 7-HFC which is a metabolite was measured with a fluorescent plate reader. (Ex=420 nm, Em=535 nm).

[5] = Solubility test (1% DMSO addition, artificial intestinal juice pH 6.8); type: physicochemical; conditions: fassgf or other biorelevant, kinetic from dmso stock, artificial intestinal juice pH 6.8, 16 hours at 25° C.
Description: A 10 mmol/L solution of the compound of the present invention is prepared with DMSO, and 6 μL of the compound solution is added to 594 μL of an artificial intestinal juice (water and 118 mL of 0.2 mol/L NaOH reagent are added to 250 mL of 0.2 mol/L potassium dihydrogen phosphate reagent to reach 1000 mL) with a pH of 6.8. The mixture is left standing for 16 hours at 25° C., and the mixture is vacuum-filtered. The filtrate is two-fold diluted with methanol/water=1/1 (V/V), and the compound concentration in the filtrate is measured with HPLC or LC/MS/MS by the absolute calibration method.

[6] = Metabolism stability test; type: in vitro ADME; conditions: human liver microsomes, 30 minutes, 37° C., NADPH, 0.5 μmol/L of the compound
Description: Using a commercially available pooled human hepatic microsomes, a compound of the present invention was reacted for a constant time, a remaining rate was calculated by comparing a reacted sample and an unreacted sample, thereby, a degree of metabolism in liver was assessed.
A reaction was performed (oxidative reaction) at 37° C. for 0 minute or 30 minutes in the presence of 1 mmol/L NADPH in 0.2 mL of a buffer (50 mmol/L Tris-HCl pH 7.4, 150 mmol/L potassium chloride, 10 mmol/L magnesium chloride) containing 0.5 mg protein/mL of human liver microsomes. After the reaction, 50 μL of the reaction mixture was added to 100 μL of a methanol/acetonitrile=1/1 (v/v), mixed and centrifuged at 3000 rpm for 15 minutes. The compound of the present invention in the supernatant was quantified by LC/MS/MS, and a remaining amount of the compound of the present invention after the reaction was calculated, letting a compound amount at 0 minute reaction time to be 100%. Glucuronidation reaction was in the presence of 5 mM UDP-glucuronic acid in place of NADPH, followed by similar operations.

CYP2C19 = CYP2C19 (Homo sapiens (Human), UniProt P33261); experiment: CYP inhibition test, mephenyloin 4'-hydroxylation; type: in vitro ADME; conditions: pooled human hepatic microsome, 50 μmol/L S-mephenyloin
CYP2C19, sequence (P33261 whole entry): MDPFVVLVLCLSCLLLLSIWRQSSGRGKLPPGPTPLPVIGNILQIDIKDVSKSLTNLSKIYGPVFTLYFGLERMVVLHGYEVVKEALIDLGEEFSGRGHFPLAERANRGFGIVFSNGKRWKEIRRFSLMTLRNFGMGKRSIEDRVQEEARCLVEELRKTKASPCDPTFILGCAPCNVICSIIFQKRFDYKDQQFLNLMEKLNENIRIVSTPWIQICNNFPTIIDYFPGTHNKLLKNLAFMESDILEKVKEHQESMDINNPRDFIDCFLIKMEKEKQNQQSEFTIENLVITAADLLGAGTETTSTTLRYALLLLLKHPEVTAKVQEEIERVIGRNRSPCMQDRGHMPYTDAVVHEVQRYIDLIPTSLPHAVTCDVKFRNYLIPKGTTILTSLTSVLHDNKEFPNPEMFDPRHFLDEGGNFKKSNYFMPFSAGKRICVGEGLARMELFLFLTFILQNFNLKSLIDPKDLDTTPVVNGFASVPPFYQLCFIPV
From the text: (§1) Using commercially available pooled human hepatic microsome, and employing, as markers, 7-ethoxyresorufin O-deethylation (CYP1A2), tolbutamide methyl-hydroxylation (CYP2C9), mephenyloin 4′-hydroxylation (CYP2C19), dextromethorphan O-demethylation (CYP2D6), and terfenedine hydroxylation as typical substrate metabolism reactions of human main five CYP enzyme forms (CYP1A2, 2C9, 2C19, 2D6, 3A4), an inhibitory degree of each metabolite production amount by a compound of the present compound was assessed.
(§2) The reaction conditions were as follows: substrate, 0.5 μmol/L ethoxyresorufin (CYP1A2), 100 μmol/L tolbutamide (CYP2C9), 50 μmol/L S-mephenyloin (CYP2C19), 5 μmol/L dextromethorphan (CYP2D6), 1 μmol/L terfenedine (CYP3A4); reaction time, 15 minutes; reaction temperature, 37° C.; enzyme, pooled human hepatic microsome 0.2 mg protein/mL; concentration of a compound of the present invention, 1, 5, 10, 20 μmol/L (four points).
(§3) Each five kinds of substrates, human hepatic microsome, or a compound of the present invention in 50 mM Hepes buffer as a reaction mixture was added to a 96-well plate at the composition as described above, NADPH, as a cofactor was added to initiate metabolism reactions as markers and. After the incubation at 37° C. for 15 minutes, a methanol/acetonitrile=1/1 (v/v) solution was added to stop the reaction. After the centrifugation at 3000 rpm for 15 minutes, resorufin (CYP1A2 metabolite) in the supernatant was quantified by a fluorescent multilabel counter and tolbutamide hydroxide (CYP2C9 metabolite), mephenyloin 4′ hydroxide (CYP2C19 metabolite), dextrorphan (CYP2D6 metabolite), and terfenadine alcohol (CYP3A4 metabolite) were quantified by LC/MS/MS.

CYP3A4 = CYP3A4 (Homo sapiens (Human), UniProt P08684); experiment: CYP inhibition test, terfenedine hydroxylation; type: in vitro ADME; conditions: pooled human hepatic microsome, 1 μmol/L terfenedine
CYP3A4, sequence (P08684 whole entry): as the sequence (P08684 whole entry) above
From the text: as §1, §2, §3

CYP2C9 = CYP2C9 (Homo sapiens (Human), UniProt P11712); experiment: CYP inhibition test, tolbutamide methyl-hydroxylation; type: in vitro ADME; conditions: pooled human hepatic microsome, 100 μmol/L tolbutamide
CYP2C9, sequence (P11712 whole entry): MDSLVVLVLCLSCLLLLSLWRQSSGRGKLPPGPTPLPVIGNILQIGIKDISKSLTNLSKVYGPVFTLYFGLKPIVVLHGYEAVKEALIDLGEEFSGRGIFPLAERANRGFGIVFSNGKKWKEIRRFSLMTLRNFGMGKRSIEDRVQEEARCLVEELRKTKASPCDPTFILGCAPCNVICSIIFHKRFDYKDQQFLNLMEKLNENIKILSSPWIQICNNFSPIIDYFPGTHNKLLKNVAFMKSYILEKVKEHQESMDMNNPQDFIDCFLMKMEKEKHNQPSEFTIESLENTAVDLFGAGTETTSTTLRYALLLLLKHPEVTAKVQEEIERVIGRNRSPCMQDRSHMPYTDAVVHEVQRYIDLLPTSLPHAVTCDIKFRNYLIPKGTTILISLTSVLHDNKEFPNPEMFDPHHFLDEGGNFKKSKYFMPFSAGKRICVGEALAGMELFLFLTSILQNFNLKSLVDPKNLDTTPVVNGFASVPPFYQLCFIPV
From the text: as §1, §2, §3

CYP2D6 = CYP2D6 (Homo sapiens (Human), UniProt P10635); experiment: CYP inhibition test, dextromethorphan O-demethylation; type: in vitro ADME; conditions: pooled human hepatic microsome, 5 μmol/L dextromethorphan
CYP2D6, sequence (P10635 whole entry): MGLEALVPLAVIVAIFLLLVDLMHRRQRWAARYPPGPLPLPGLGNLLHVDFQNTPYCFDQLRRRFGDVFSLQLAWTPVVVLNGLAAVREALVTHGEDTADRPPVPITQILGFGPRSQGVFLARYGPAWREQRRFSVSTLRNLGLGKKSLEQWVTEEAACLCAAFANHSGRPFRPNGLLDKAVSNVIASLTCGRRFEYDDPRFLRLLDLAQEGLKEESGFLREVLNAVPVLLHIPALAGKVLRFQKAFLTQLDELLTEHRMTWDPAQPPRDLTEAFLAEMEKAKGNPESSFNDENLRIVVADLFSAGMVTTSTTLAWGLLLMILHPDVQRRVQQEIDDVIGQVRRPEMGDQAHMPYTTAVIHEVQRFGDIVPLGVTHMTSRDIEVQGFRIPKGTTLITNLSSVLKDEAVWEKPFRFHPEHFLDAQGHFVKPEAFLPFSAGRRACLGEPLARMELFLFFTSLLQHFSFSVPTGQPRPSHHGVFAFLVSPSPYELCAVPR
From the text: as §1, §2, §3

CYP1A2 = CYP1A2 (Homo sapiens (Human), UniProt P05177); experiment: CYP inhibition test, 7-ethoxyresorufin O-deethylation; type: in vitro ADME; conditions: pooled human hepatic microsome, 0.5 μmol/L ethoxyresorufin
CYP1A2, sequence (P05177 whole entry): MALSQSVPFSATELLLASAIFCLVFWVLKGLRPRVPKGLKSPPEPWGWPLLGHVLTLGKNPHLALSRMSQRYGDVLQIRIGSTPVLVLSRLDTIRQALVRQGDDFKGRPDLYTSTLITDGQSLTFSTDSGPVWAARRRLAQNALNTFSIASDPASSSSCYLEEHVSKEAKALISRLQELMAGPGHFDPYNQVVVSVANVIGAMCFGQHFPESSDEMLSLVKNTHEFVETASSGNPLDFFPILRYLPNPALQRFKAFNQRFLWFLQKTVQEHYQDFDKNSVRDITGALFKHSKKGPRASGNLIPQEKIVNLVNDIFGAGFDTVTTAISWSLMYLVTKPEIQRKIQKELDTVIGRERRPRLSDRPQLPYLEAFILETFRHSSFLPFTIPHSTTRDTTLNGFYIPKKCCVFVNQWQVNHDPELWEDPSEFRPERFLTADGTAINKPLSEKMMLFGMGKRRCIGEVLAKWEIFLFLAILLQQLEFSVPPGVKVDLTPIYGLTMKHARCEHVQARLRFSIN
From the text: as §1, §2, §3

[7] = IC50 of PGD2 (60 nM)-induced cAMP increase, human DP1 receptor expressing Jurkut cell
[8] = category of cAMP IC50, human DP1 receptor expressing Jurkut cell
[9] = CRTH2 receptor binding, categorized AAAA/AAA

Human DP1 receptor, sequence (Q13258 whole entry): as the sequence (Q13258 whole entry) above

SMILES | IC50 (Human DP1 receptor; [7]) | IC50 (Human DP1 receptor; [8]) | IC50 (CRTH2 [1]) | IC50 (DP receptor) | Ki (CRTH2 [2]; [9]) | Ki (CRTH2 [2]) | IC50 (CRTH2 [3]) | difference in IC50 with vs without preincubation [4] | solubility at 16 h [5] | remaining rate after reaction (result heading prints '% inhibition') [6] | IC50 (CYP2C19) | IC50 (CYP3A4) | IC50 (CYP2C9) | IC50 (CYP2D6) | IC50 (CYP1A2)
CC(C)Oc1ccc(S(=O)(=O)N2C[C@@H](C)[C@@H](n3nc(CC(=O)O)c4ccc(F)cc43)C2)cn1 [Compound I-123] | 31 nM | < 100 nM | 60 nM | 120 nM | < 100 nM | 4.3 nM | 91 nM | – | – | – | – | – | – | – | –
CC(C)Oc1ccc(S(=O)(=O)N2C[C@@H](C)[C@@H](n3nc(CC(=O)O)c4ccc(C(F)(F)F)cc43)C2)cc1 [Compound I-130] | 10 nM | < 100 nM | 46 nM | 240 nM | < 100 nM | 4.7 nM | 73 nM | – | – | – | – | – | – | – | –
CCOc1ccc(S(=O)(=O)N2C[C@@H](C)[C@@H](n3nc(CC(=O)O)c4ccccc43)C2)cc1 [Compound I-97] | – | < 100 nM | 68 nM | – | < 100 nM | 13 nM | 92 nM | – | – | – | – | – | – | – | –
Cc1c(CC(=O)O)c2ccccc2n1[C@H]1CN(S(=O)(=O)c2ccc(F)cc2)C[C@H]1C [Compound I-287] | – | 100 to 5000 nM | – | – | < 100 nM | – | – | ≤ 3000 nM | – | – | – | – | – | – | –
CC(C)Oc1ccc(S(=O)(=O)N2C[C@H](n3nc(CC(=O)O)c4ccc(F)cc43)[C@@](C)(F)C2)cc1 (racemic) [Compound I-85] | 19 nM | < 100 nM | 33 nM | 210 nM | < 100 nM | 2.8 nM | 140 nM | – | > 50 µM | – | – | – | – | – | –
CC(C)Oc1ccc(S(=O)(=O)N2C[C@@H](N3CCCC3)[C@@H](n3nc(CC(=O)O)c4ccc(F)cc43)C2)cc1 [Compound I-47] | – | 100 to 5000 nM | – | – | < 100 nM | 16 nM | – | – | – | 91.8% | – | – | – | – | –
CC(C)Oc1ccc(S(=O)(=O)N2C[C@H](C)[C@@H](n3nc(CC(=O)O)c4ccc(F)cc43)C2)cc1 [Compound I-31] | – | < 100 nM | 13 nM | – | < 100 nM | – | – | – | – | – | – | – | – | – | –
CC(C)Oc1ccc(S(=O)(=O)N2CC[C@H](n3nc(CC(=O)O)c4ccc(F)cc43)[C@@H](C)C2)cc1 [Compound I-74] | – | < 100 nM | – | – | 100 to 5000 nM | 680 nM | – | – | > 50 µM | – | > 20000 nM | > 20000 nM | > 20000 nM | > 20000 nM | > 20000 nM
CC(C)Oc1ccc(S(=O)(=O)N2CC[C@H](n3nc(CC(=O)O)c4ccc(F)cc43)[C@H](C)C2)cc1 [Compound I-75] | – | < 100 nM | – | – | 100 to 5000 nM | – | – | ≤ 3000 nM | – | 99.2% | – | – | – | – | –
CCOc1ccc(S(=O)(=O)N2C[C@@H](C)[C@@H](n3c(C)c(CC(=O)O)c4ccccc43)C2)cc1 [Compound I-329] | – | < 100 nM | – | – | < 100 nM | – | – | ≤ 3000 nM | – | – | – | – | – | – | –
